Laboratory results published in US9778264B2, “Identification and enrichment of cell subpopulations” (STEM CENTRX, INC., priority 2010, dated 2017).

Legend:
colorectal NTX tumors = assay: Chemoresistance of tumor cell subpopulations in mice bearing colorectal NTX tumors; assay type: in vivo; details: 15 mg/kg twice weekly
Protocol: To assess chemoresistance of tumor cell subpopulations, in vivo cohorts of mice bearing NTX colorectal tumors were randomized into two groups, such that the average tumor volume for each group was roughly equal. The groups were then treated twice weekly with either 15 mg/kg irinotecan or an equivalent volume of vehicle buffer. Tumor volumes and animal health were monitored and recorded twice weekly, a day prior to each injection.

pancreatic NTX tumors = assay: Chemoresistance of tumor cell subpopulations in mice bearing pancreatic NTX tumors
Protocol: Mice then received twice weekly intraperitoneal dosing of 15 mg/kg irinotecan or 25 mg/kg gemcitabine, respectively, for a period of approximately 20 days before they were euthanized for tumor resection and cellular analysis.
Harvested tumors were then dissociated and constituent single cells were analyzed by flow cytometry.

SMILES	frequency of cells with TPC phenotype (CD46hi CD324+ CD66c-) among live human cells, treated vs saline-treated (colorectal NTX tumors; flow cytometry of harvested tumors, FIGS. 24B and 24C)	CD66c phenotype of residual cells among the CD46hi CD324+ population (colorectal NTX tumors; flow cytometry, in vehicle-treated tumors most residual cells were CD66c+, FIG. 24D)	tumor volume (growth of treated tumors) (pancreatic NTX tumors; 25 mg/kg intraperitoneal twice weekly, vs vehicle-treated tumors that continued to grow unabated, FIG. 25A)	residual tumor cell marker phenotype (CD46 expression) (pancreatic NTX tumors; 25 mg/kg twice weekly, flow cytometry of harvested tumors, vehicle vs treated, FIG. 25B)
CCc1c2c(nc3ccc(OC(=O)N4CCC(N5CCCCC5)CC4)cc13)-c1cc3c(c(=O)n1C2)COC(=O)[C@]3(O)CC [irinotecan]	more than 2.5 fold	most residual cells were CD66c^−		
Nc1ccn([C@@H]2O[C@H](CO)[C@@H](O)C2(F)F)c(=O)n1 [gemcitabine]			decreased in volume	enrichment for tumor cells expressing markers indicative of TIC
